Assay results published in US20240366571A1, “MODULATORS OF SK4 POTASSIUM CHANNEL AND USES THEREOF” (Ramot at Tel-Aviv University Ltd., priority 2022, published 2024).

Biological target: T1, WT SK4 channels (Homo sapiens, UniProt O15554)
T1 construct: expressed in transfected cells; host or cells: CHO cells
Assay: Inside-out macro-patch recording of WT SK4 channels in transfected CHO cells
Assay type: cell-based
Method: Inside-out macro-patch recording: To measure the Ca^2+ concentration dependence for SK4 channel activation, CHO cells were co-transfected with plasmids encoding WT SK4 (1 μg) and WT CaM (1 μg) using the Lipofectamine reagent at a ratio of 1:2. The cells were transfected 48 hours prior to recordings. The patch pipettes were pulled and fire-polished with a MF-900 micro-forge (Narashige) to reach an internal diameter of […]. The resistance of the patch electrodes ranged from 2-3 MΩ. The pipette solution contained 135 mM KCl, 1 mM MgSO4, 0.91 mM CaCl2, and 10 mM HEPES at pH 7.3. The bath solution contained 135 mM KCl, 5 mM EGTA, and 10 mM HEPES at pH 7.3. EGTA was used to titer the different Ca^2+ concentration solutions, calculated using the software by C. Patton of Stanford University (http://maxchelator(dot)stanford(dot)edu/). Currents were recorded by 10 repetitive 1 second duration voltage ramps from −100 mV to +100 mV from a holding potential of 0 mV. The current amplitudes in response to increasing Ca^2+ concentrations were normalized to those obtained at a saturating Ca^2+ concentration (3 μM). Furthermore, to determine the Ca^2+ concentration dependence for activation in the presence of a tested compound, such as the exemplary compound BA6b9 (10 μM), the current amplitudes were normalized to those obtained at large maximal Ca^2+ concentration of 10 μM. For PIP2-dependent activation, PIP2 affinity to the SK4 channel was also examined in the inside-out configuration. The dose-response curve for PIP2 was measured with increasing concentrations of diC8-PIP2 in the presence of 1 μM Ca^2+. The diC8-PIP2 effect on the channel current was measured after complete depletion of the native PIP2 using sonicated poly-L-lysine (PLL) 50 μg/ml and a subsequent 2-minute washout. […] Apparent EC50 values for Ca^2+ or diC8-PIP2 were determined by fitting the data points to a standard dose-response curve Y=100/(1+10^(log EC(50)−X)*HillSlope).
The calcium dependence of the human SK4 K^+ channel in transfected CHO cells was characterized using inside-out macro-patches. The expressed currents were recorded in response to voltage ramps (−100 millivolt (mV) to +100 mV for 1 seconds) and by increasing the free-Ca^2+ concentrations applied to the internal face of the membrane. […]
To examine whether PIP2 is involved in the modulation of the SK4 channel, channel trafficking to the plasma membrane was increased by co-transfecting CHO cells with plasmid DNAs encoding for the channel and for wild type (WT) CaM. The resulting currents were recorded from inside-out macro-patches, where the intracellular solution contained a saturating concentration of 1 μM free-Ca^2+, as shown in FIG. 1B (see, black plot).

CCCCCCCn1c(=O)oc2ccccc21 [BA6b9, 3-heptylbenzo[d]oxazol-2(3H)-one]
lowering of the sensitivity of SK4 channels to Ca2+ (10 μM compound): about 7 fold | inhibition at 10 µM (CHO, 10 μM, 1 μM free-Ca2+, read-out: inhibition of SK4 currents in inside-out macro-patches): 66%
